ChEMBL document CHEMBL4507268 (2021)

Tests used:
Conditions in all cases: Compound concentration 1.0 uM
[1] = molecular target: T1, Phosphorylase b kinase regulatory subunit alpha, liver isoform (Homo sapiens) (UniProt P46019)
T1 sequence (whole entry): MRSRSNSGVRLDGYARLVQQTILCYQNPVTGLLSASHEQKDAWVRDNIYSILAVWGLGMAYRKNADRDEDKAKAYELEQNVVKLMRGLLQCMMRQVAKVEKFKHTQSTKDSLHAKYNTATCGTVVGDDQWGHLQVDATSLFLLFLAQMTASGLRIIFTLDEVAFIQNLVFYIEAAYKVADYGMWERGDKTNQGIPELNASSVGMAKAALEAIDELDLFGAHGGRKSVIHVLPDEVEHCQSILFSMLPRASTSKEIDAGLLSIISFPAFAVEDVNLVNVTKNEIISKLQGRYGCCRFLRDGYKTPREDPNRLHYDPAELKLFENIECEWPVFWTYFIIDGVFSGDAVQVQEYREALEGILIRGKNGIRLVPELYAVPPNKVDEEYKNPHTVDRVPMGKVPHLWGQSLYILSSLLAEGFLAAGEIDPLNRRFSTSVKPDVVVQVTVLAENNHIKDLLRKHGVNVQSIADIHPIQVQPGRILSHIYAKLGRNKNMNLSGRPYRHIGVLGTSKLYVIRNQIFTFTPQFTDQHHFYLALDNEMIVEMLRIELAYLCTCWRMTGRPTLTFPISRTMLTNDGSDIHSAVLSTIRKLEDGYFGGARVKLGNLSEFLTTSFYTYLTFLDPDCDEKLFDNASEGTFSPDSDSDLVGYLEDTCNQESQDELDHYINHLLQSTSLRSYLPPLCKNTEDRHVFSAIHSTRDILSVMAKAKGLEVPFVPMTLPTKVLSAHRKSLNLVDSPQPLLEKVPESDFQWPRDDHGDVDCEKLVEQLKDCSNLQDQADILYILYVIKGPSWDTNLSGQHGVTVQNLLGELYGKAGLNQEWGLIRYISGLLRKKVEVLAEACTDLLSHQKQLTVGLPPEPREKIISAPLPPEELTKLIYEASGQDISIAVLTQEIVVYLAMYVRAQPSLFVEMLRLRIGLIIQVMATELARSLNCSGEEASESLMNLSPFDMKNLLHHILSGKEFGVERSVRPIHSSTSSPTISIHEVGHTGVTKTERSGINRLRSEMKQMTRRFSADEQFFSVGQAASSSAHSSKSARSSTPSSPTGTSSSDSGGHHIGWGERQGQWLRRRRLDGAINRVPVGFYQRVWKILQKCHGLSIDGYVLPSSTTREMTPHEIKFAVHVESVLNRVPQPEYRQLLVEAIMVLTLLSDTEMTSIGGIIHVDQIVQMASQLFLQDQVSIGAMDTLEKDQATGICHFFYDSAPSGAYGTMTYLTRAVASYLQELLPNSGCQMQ

[2] = molecular target: Tyrosine-protein kinase Blk (Homo sapiens) (UniProt P51451)
Chain of Tyrosine-protein kinase Blk (Homo sapiens) (P51451 2-505 limits assumed): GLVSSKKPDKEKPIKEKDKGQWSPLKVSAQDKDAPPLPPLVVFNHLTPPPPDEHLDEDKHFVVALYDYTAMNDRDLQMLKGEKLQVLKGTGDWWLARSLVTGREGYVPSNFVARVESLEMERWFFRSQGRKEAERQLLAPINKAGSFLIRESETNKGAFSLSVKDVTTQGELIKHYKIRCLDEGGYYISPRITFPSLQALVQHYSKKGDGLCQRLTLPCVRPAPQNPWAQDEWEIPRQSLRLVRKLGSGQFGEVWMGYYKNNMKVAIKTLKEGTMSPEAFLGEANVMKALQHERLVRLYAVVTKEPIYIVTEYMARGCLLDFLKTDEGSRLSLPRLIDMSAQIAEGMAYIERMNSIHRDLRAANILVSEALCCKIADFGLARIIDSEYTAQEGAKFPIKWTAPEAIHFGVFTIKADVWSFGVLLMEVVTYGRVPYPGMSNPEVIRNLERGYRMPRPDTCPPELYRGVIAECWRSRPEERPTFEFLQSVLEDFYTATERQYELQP

[3] = molecular target: T2, Protein kinase C epsilon type (Homo sapiens) (UniProt Q02156)
T2 sequence (whole entry): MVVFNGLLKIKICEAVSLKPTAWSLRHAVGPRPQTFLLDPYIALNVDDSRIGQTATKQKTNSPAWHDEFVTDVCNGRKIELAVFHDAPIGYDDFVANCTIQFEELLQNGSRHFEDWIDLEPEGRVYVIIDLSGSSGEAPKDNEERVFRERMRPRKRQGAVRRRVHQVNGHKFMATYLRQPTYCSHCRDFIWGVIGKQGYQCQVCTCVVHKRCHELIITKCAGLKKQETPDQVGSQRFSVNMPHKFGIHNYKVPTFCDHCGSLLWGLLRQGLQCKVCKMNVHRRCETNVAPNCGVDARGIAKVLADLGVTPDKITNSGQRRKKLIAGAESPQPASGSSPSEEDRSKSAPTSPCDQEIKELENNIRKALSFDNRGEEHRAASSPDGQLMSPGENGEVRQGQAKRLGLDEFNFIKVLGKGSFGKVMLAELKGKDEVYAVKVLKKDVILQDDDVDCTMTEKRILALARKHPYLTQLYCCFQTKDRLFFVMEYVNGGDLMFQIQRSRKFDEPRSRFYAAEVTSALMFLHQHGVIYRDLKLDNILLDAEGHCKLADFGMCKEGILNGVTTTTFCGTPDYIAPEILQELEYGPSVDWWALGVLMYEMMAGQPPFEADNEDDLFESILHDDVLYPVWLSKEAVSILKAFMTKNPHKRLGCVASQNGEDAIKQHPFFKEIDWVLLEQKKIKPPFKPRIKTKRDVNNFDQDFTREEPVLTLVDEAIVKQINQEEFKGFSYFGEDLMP

Measured: % residual kinase activity

CN1CCN(c2cnc3c(C4CCN(C(=O)c5ccc(OC(F)(F)F)cc5N)CC4)ncnc3c2)CC1 [BAY-885]
inactive: [1] 112% | [2] 88% | [3] 104%
